Assay results from patent publication US20250345391A1, “COMPOSITIONS AND METHODS FOR THE TREATMENT OF SEPSIS” (Children's Hospital Medical Center, priority 2022, published 2025).

Columns and labels:
[1] = tested on: endothelial glycocalyx and mitochondria of thoracic aortas; test: Transmission electron microscopy of thoracic aortas with lanthanum staining after CLP; assay type: in vivo, Male C57BL/6 mice; details: 6 h after CLP; colivelin 100 μg/kg i.p. at 1 h after CLP; vs vehicle
Source text: The investigation conformed to the National Institutes of Health Guide for the Care and Use of Laboratory Animals (Eighth Edition, 2011) and was approved by the Institutional Animal Care and Use Committee of the Cincinnati Children's Hospital Medical Center. Male C57BL/6 mice were obtained from Charles River Laboratories International, Inc. (Wilmington, MA). Mice were used at 3-5 months of age to mimic the equivalent for human ranges from 20-25 years (29). Male mice only were chosen for the experimentation to avoid interference from female hormonal fluctuations in sepsis responses during the estrous cycle. Mice were housed in pathogen-free conditions under a 10-h light/14-h dark cycle with free access to food and water. Mice were anesthetized with 2.0% isoflurane in 50% oxygen and polymicrobial sepsis was induced by cecal ligation and puncture (CLP) (30). After a midline laparotomy, the cecum was exteriorized, ligated and punctured twice with a 23-G needle. The cecum was then returned into the peritoneal cavity and the abdominal incision was closed. […]
Glycocalyx structure was assessed by transmission electron microscopy (35). […]

[2] = tested on: STAT3; test: Western blot of STAT3 and phosphorylated forms in thoracic aorta after CLP; assay type: in vivo, Male C57BL/6 mice; details: 6 h after CLP
Source text: The investigation conformed to the National Institutes of Health Guide for the Care and Use of Laboratory Animals (Eighth Edition, 2011) and was approved by the Institutional Animal Care and Use Committee of the Cincinnati Children's Hospital Medical Center. Male C57BL/6 mice were obtained from Charles River Laboratories International, Inc. (Wilmington, MA). Mice were used at 3-5 months of age to mimic the equivalent for human ranges from 20-25 years (29). Male mice only were chosen for the experimentation to avoid interference from female hormonal fluctuations in sepsis responses during the estrous cycle. Mice were housed in pathogen-free conditions under a 10-h light/14-h dark cycle with free access to food and water. Mice were anesthetized with 2.0% isoflurane in 50% oxygen and polymicrobial sepsis was induced by cecal ligation and puncture (CLP) (30). After a midline laparotomy, the cecum was exteriorized, ligated and punctured twice with a 23-G needle. The cecum was then returned into the peritoneal cavity and the abdominal incision was closed. After the procedure, mice were randomly assigned to three treatment groups: a vehicle-treated group received distilled water (200 μl/mouse) intraperitoneally (i.p.); a 100 μg colivelin-treated group received the colivelin at 100 μg/kg i.p., and a 200 μg colivelin-treated group received the colivelin at 200 μg/kg i.p. at 1 h after CLP. The intraperitoneal injection was chosen to allow for a rapid uptake and bioavailability of the peptide. All groups of mice also received fluid resuscitation (35 ml/kg normal saline solution subcutaneously) immediately after, at 3 h and 12 h after the CLP procedure. To minimize pain at the surgical incision site, lidocaine hydrochloride (1%, 4 mg/kg total dose) was applied locally immediately after the procedure. […] Mice were then sacrificed at 0, 6 and 18 h after CLP. Blood, lungs, kidneys, liver, and thoracic aortas were collected for biochemical assays.
Subcellular fractionation was performed using a centrifugation model. Tissue samples of lung and thoracic aortas were homogenized in a buffer (50 mg tissue/100 μL) containing 0.32 M sucrose, 10 mM Tris-HCl (pH 7.4), 1 mM EGTA, 2 mM EDTA, 5 mM NaN3, 10 mM β-mercaptoethanol, 2 μM leupeptin, 0.15 μM pepstatin A, 0.2 mM phenylmethanesulfonyl fluoride, 50 mM NaF, 1 mM sodium orthovanadate and 0.4 nM microcystin. Samples were centrifuged at 1000×g for 10 min at 4° C. and the supernatants collected as cytosol extracts, which also contain membrane and mitochondria. The pellets were then solubilized in Triton buffer (1% Triton X-100, 250 mM NaCl, 50 mM Tris HCl at pH 7.5, 3 mM EGTA, 3 mM EDTA, 1 mM phenylme-thanesulfonyl fluoride, 0.1 mM sodium orthovanadate, 10% glycerol, 2 mM p-nitrophenyl phosphate, 0.5% NP-40 and 46 μM aprotinin). The lysates were rocked for 1 h and subsequently centrifuged at 15,000×g for 30 min at 4° C. and the supernatant collected as nuclear extracts. The Bradford protein assay was then used for quantitative determination of total proteins.
Cytosol content of total AMPKα1/α2 and its phosphorylated form pAMPKα1/α2 (Santa Cruz Biotechnology, Dallas, TX, USA), cytosol and nuclear content of STAT3 and its phosphorylated forms pSTAT3(Tyr705) and pSTAT3(Ser727) (Cell Signaling Technology, Danvers, MA, USA) were determined by immunoblot analyses; β-actin was concomitantly probed with mouse anti-β-actin (Santa Cruz Biotechnology) as a loading control for both cytosol and nuclear proteins. Extracts were heated at 70° C. in equal volumes of 4× Protein Sample Loading Buffer. Twenty-five μg of proteins were loaded per lane on a 10% Bis-Tris gel. Proteins were separated electrophoretically and transferred to nitro-cellulose membranes. The immunoreaction was detected by near-infrared fluorescence. Membranes were blocked with Odyssey blocking buffer (LI-COR Biotechnology, Lincoln, NE, USA) and incubated with primary antibodies. […]

[3] = colivelin i.p. at 1 h after CLP, vs vehicle

Substance: Colivelin (SALLRSIPAPAGASRLLLLTGEIDLP)
- Dense structure of endothelial glycocalyx in thoracic aorta (electron microscopy) [1]: appeared well preserved
- Mitochondria in thoracic aorta cells (electron microscopy) [1]: appeared normal with dense matrix in all cell types
- Nuclear expression of pSTAT3(Tyr705), thoracic aorta ([2]; colivelin at the highest dose): inhibited
- Cytosolic expression of pSTAT3(Ser727), thoracic aorta [2, 3]: significantly reduced
- Cytosolic expression of pSTAT3(Tyr705), thoracic aorta [2, 3]: significantly reduced
- Levels of total STAT3 in the cytosol, thoracic aorta [2, 3]: restored
- Levels of total STAT3 in the nucleus, thoracic aorta [2, 3]: remained unchanged
- Nuclear expression of pSTAT3(Ser727), thoracic aorta [2, 3]: did not affect
